# Test results published in patent US6974816B2, “Combination for the treatment of endothelial damage” (Licentia Ltd., priority 2001, dated 2005).
# Read-outs that look alike come from different tables or passages of the source.
# Columns and labels:
# [1] = tested on: left anterior descending coronary artery injured by overdilatation and denudation; conditions: after PTCA, versus controls without RPR101511A; cited from earlier work
# [2] = tested on: CD31-positive cells (endothelium) of the transfected vessel segment; assay: Luminal endothelial cell coverage (CD31-positive cells) in transverse vessel sections; format: in vivo, New Zealand White rabbits
# Procedure: Animals from the 8 groups are also analyzed with regard to luminal endothelial cell coverage from transverse vessel sections. This variable is determined by analysis of the percentage of the luminal surface that is covered by CD31-positive cells (CD31 is an endothelium-specific antibody from DAKO).
# To investigate the mechanism underlying the observed beneficial effect of the combination therapy, the extent of endothelialization and the number of smooth muscle cells at the transfected vessel segment are analyzed (see Table 1). At the three-week time point, no difference in endothelial cell coverage is observed between the groups, although a trend towards an increased endothelial cell coverage in the combination group is seen (P=0.088). However, at the six-week time point, both groups that have received VEGF-C gene transfer display an increase in endotheilialization as compared to the control group. […] As shown in Table 4 (see below), the cell number is reduced by 52% (P<0.05) in the combination group as compared to control animal.
# Three hours before euthanasia, animals receive an i.v. injection of 50 mg 5-bromo-2′-deoxyuridine (BrdU; Zymed Laboratories, San Francisco, Calif., USA) dissolved in 40% ethanol. After euthanasia, the transferred vessel segment is removed, flushed gently with saline, and divided into 4 parts of equal length. […]
# [3] = for Plasma STI571 concentration, day 3 peak: 10 mg/kg/d oral in two daily doses; for Plasma STI571 concentration, day 3 peak / Plasma STI571 concentration, day 10 peak / Plasma STI571 concentration, day 21 peak: 2 h after drug delivery; for Plasma STI571 concentration, day 42: 3 weeks after last dose; for Plasma STI571 concentration, day 3 nadir / Plasma STI571 concentration, day 10 nadir / Plasma STI571 concentration, day 21 nadir: immediately before next administration
# Procedure: The drug, or control (=sterile water) is administered with an oro-gastric sond on trained, unsedated animals 1 h before the gene transfer and is repeated every 12 h thereafter for the following three weeks.
# Blood sampling, […] with catheterizations or euthanasia, is performed under slight Fluanisone/Fentanyl sedation. […] The specimen is stored in heparinized tubes shielded from light and plasma is isolated by centrifugation within 2 h and stored at −70° C. STI concentration is determined by high-performance liquid chromatography
# For HPLC, plasma proteins are precipitated by the addition of an equal volume of acetonitrile. After 20 to 30 min at room temperature, the precipitated proteins are removed by centrifugation (10,000 g, 5 min) and the supernatants are analyzed by reversed-phase HPLC.
# HPLC is performed on Merck-Hitachi LaChrom® equipment. 100 μl of the supernatants are injected onto a Nucleosil® 100-5 C18 column (C-18 modified silica Gel, Macherey & Nagel) protected by a 20 mm guard column of the same material. The sample is eluted with a gradient of acetonitrile in water at a flow rate of 1 ml/min; after 5 min at 10% v/v acetonitrile, the concentration of acetonitrile is increased to 75% v/v over a period of 15 min. The column is prepared for the next sample by washing for 5 min with 75% v/v acetonitrile, returning to 10% acetonitrile over 5 min and 5 min reequilibration. The mobile phase contains 0.05% v/v trifluoroacetic acid. The eluent is monitored using UV absorbance at a wavelength of 265 nm. […] The concentration of the compound is determined by the external standard method using peak heights. […] The calibration standards are processed as above.
# [4] = tested on: intimal and medial smooth muscle cells; assay: BrdU labelling of dividing smooth muscle cells; format: in vivo, New Zealand White rabbits; conditions: 6-week endpoint; mean ± SEM
# Procedure: (§1) Three hours before euthanasia, animals receive an i.v. injection of 50 mg 5-bromo-2′-deoxyuridine (BrdU; Zymed Laboratories, San Francisco, Calif., USA) dissolved in 40% ethanol. After euthanasia, the transferred vessel segment is removed, flushed gently with saline, and divided into 4 parts of equal length. The proximal part is snap-frozen in liquid nitrogen and stored at −70° C. The next part is immersion-fixed in 4% paraformaldehyde/15% sucrose (pH 7.4) for 4 h, rinsed in 15% sucrose (pH 7.4) and embedded in paraffin. The 2nd most distal part is fixed in 70% ethanol overnight and embedded in paraffin. The distal part is fixed in […]/PBS (pH 7.4) for 10 minutes, rinsed in PBS, embedded in OCT compound (Miles) and stored at −70° C. The distal segments from 3 week end-point animals are stained for β-galactosidase activity in X-Gal staining solution at +37° C. for 16 h, followed by fixation similar to that for the second segment. Paraffin sections are used for the detection of endothelium (CD31, DAKO, 1:50), smooth muscle cells (HHF, DAKO, 1:50), macrophages (RAM-11, DAKO, 1:50), and BrdU positive cells (Bu20a, DAKO, 1:50). Controls for immunostainings include incubations with class- and species-matched immunoglobulins and omission of primary antibodies. Morphometry is performed with Leica Q5001lW software with a stereomicroscope connected to a digital camera (Leica).
# [5] = tested on: intimal and medial smooth muscle cells; assay: Intimal and medial smooth muscle cell number; format: in vivo, New Zealand White rabbits; conditions: 6-week endpoint; mean ± SEM
# Procedure: as §1
# [6] = rabbit, in vivo
# Excerpt: (§2) The cohort groups are also characterized with regard to animal weights, weight changes, extent of balloon injury (IEL damage), blood lipid profiles and basic hematologic parameters.
# [7] = rabbit, in vivo; remark: listed apart in the source
# Excerpt: as §2
# (§3) Blood samples are drawn for complete blood count at the time of euthanasia from randomly selected animals (n=3/group) in the 3-week endpoint cohort.
# arterial intima = conditions: after re-injury of the arterial intima; cited from earlier work
# [8] = Complete blood count (hematological parameters); conditions: 3-week endpoint; mean ± SEM
# Excerpt: as §2, §3
smiles,measurement,setting,value
"COc1cc2ncc(-c3ccsc3)nc2cc1OC.Cl [RPR101511A, 6,7-di-methoxy-2-thiophen-3-yl-quinoxaline hydrochloride]",total intima/media ratio,[1],significant decrease
"Cc1ccc(NC(=O)c2ccc(CN3CCN(C)CC3)cc2)cc1Nc1nccc(-c2cccnc2)n1 [STI571, N-{5-[4-(4-methyl-piperazino-methyl)-benzoylamido]-2-methylphenyl}-4-(3-pyridyl)-2-pyrimidine-amine]","CD31 positive cell coverage (% of luminal circumference), mean",[2]; 3-week endpoint,33.7 % of luminal circumference
same,"CD31 positive cell coverage (% of luminal circumference), mean",[2]; 6-week endpoint,60.2 % of luminal circumference
same,"Plasma STI571 concentration, day 3 peak",[3]; LacZ transfected animals,10.27 ± 1.28 µM
same,"Plasma STI571 concentration, day 42",[3]; LacZ transfected animals,0.04 ± 0.01 µM
same,"Plasma STI571 concentration, day 10 peak",[3]; LacZ transfected animals,16.63 ± 1.99 µM
same,"Plasma STI571 concentration, day 21 peak",[3]; LacZ transfected animals,13.18 ± 1.65 µM
same,"Plasma STI571 concentration, day 3 nadir",[3]; LacZ transfected animals,3.57 ± 0.74 µM
same,"Plasma STI571 concentration, day 10 nadir",[3]; LacZ transfected animals,5.16 ± 1.89 µM
same,"Plasma STI571 concentration, day 21 nadir",[3]; LacZ transfected animals,3.86 ± 1.02 µM
same,"Plasma STI571 concentration, day 3 peak",[3]; VEGF-C transfected animals,11.08 ± 1.10 µM
same,"Plasma STI571 concentration, day 42",[3]; VEGF-C transfected animals,0.05 ± 0.01 µM
same,"Plasma STI571 concentration, day 10 peak",[3]; VEGF-C transfected animals,14.26 ± 1.26 µM
same,"Plasma STI571 concentration, day 21 peak",[3]; VEGF-C transfected animals,13.58 ± 1.95 µM
same,"Plasma STI571 concentration, day 3 nadir",[3]; VEGF-C transfected animals,3.11 ± 1.13 µM
same,"Plasma STI571 concentration, day 10 nadir",[3]; VEGF-C transfected animals,2.41 ± 0.43 µM
same,"Plasma STI571 concentration, day 21 nadir",[3]; VEGF-C transfected animals,2.95 ± 0.90 µM
same,"BrdU positive SMC (%), intima",[4],0.57 ± 0.13%
same,"BrdU positive SMC (%), media",[4],0.39 ± 0.08%
same,"Number of SMC, intima",[5],1471 ± 287
same,"Number of SMC, media",[5],2403 ± 381
same,weight,[6],2462 ± 90 g
same,Bands (%),[7],0 ± 0%
same,Hct (%),[7],31 ± 1.2%
same,MCH,[7],21 ± 0.8 pg
same,MCV,[7],64 ± 2.0 fL
same,basophiles (%),[7],0 ± 0%
same,eosinophiles (%),[7],3.4 ± 1.4%
same,lymphocytes (%),[7],67.4 ± 4.1%
same,monocytes (%),[7],2.4 ± 0.7%
same,neutrophils (%),[7],26.8 ± 2.7%
same,smooth muscle proliferation and lesion formation,arterial intima,inhibit smooth muscle proliferation and leasion formation
same,Hb,[8],103 ± 3.6 g/L
same,RBC count (× 10^12/l),[8],4.9 ± 0.2 × 10^12/l
same,WBC count (× 10^9/l),[8],4.6 ± 0.6 × 10^9/l
